# In patent publication US20090270255A1 (priority 2005, published 2009):
# Read-outs that look alike come from different tables or passages of the source.
# System: Pyricularia oryzae
# Assay type: cell-based
# [1] = single active compound, conc. 1 ppm, MTP measured at 405 nm on day 7 after inoculation, 18° C.
Molecule,Observed effect (%) [1] [%],"Observed effect (%) (single active compound, conc. 4 ppm, MTP measured at 405 nm on day 7 after inoculation, 18° C.)",Observed effect (%)
"CC1(C)CC/C(=C\c2ccc(Cl)cc2)C1(O)Cn1cncn1 (stereo not shown) [Triticonazole, triticonazole]",3,13,
bromuconazole,,,0
"Fc1ccc(C2(Cn3cncn3)OC2c2ccccc2Cl)cc1 (stereo not shown) [Epoxiconazole, epoxiconazole]",0,,
